Reference: patent US10457654B2 (GENENTECH, INC., priority 2017, dated 2019)
Counter-ions that a name gives are not always drawn.

Columns and labels:
hNav1.7 [1] = target: T1, hNav1.7 (Homo sapiens (Human), UniProt Q15858); assay: Tritiated compound binding to membranes from cells expressing hNav1.7 and the β1 subunit, modified protocol (LBA, Ex. 243B); conditions: 300 pM [3H]compound, room temperature, read-out: Nav1.7 LBA (Ex. 243B) IC50
Target sequence in this assay (Q15858 whole entry, looked up): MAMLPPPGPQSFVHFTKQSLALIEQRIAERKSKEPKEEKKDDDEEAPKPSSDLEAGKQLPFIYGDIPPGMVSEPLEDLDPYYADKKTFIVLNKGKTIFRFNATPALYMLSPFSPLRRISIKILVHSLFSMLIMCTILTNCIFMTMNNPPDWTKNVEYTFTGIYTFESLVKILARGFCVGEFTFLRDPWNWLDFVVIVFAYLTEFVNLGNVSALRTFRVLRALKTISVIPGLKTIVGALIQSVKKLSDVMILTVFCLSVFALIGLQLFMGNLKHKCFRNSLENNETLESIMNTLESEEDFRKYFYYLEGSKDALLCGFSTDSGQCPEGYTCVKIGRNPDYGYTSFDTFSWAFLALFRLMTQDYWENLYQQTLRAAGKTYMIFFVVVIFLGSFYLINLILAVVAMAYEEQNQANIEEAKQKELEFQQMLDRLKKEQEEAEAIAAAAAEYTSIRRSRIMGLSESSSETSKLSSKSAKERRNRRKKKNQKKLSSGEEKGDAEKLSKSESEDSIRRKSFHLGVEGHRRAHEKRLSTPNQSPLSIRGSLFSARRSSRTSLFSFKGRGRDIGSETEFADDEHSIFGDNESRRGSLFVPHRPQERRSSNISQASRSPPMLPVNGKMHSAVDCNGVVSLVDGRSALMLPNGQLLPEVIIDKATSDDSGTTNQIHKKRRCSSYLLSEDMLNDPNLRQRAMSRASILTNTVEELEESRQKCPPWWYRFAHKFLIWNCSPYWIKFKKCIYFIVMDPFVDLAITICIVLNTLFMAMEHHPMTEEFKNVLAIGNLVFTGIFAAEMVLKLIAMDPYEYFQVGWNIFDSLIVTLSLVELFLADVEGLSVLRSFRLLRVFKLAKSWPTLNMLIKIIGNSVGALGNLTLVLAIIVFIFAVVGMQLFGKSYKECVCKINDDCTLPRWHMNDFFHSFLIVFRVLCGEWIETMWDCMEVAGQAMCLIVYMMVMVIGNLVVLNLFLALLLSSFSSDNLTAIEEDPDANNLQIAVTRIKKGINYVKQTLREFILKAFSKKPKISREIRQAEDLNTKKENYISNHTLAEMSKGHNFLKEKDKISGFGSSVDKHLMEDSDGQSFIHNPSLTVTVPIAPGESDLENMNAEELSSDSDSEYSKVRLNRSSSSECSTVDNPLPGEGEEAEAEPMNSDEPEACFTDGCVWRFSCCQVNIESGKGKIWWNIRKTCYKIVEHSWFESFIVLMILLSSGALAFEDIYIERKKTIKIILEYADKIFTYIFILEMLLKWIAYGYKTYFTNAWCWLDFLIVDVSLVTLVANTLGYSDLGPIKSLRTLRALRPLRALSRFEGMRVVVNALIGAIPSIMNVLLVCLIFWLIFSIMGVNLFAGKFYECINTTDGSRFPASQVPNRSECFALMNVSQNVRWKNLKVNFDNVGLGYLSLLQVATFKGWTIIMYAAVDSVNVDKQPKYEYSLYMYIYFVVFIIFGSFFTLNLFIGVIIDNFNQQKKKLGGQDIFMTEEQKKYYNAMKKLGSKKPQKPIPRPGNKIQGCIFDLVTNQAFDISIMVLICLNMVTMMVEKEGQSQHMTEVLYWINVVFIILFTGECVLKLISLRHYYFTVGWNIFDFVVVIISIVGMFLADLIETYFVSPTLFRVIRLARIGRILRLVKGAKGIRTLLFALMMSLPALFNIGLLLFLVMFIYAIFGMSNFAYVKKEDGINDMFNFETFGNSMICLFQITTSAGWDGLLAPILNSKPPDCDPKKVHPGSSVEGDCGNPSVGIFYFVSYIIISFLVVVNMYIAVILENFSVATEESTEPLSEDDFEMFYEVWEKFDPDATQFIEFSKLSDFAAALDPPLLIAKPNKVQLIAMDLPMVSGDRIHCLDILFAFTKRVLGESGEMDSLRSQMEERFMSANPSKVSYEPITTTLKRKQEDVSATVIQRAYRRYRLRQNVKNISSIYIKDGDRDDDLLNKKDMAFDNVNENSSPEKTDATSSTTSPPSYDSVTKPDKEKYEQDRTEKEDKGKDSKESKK
Target sequence in this assay (Q07699 whole entry partner, looked up): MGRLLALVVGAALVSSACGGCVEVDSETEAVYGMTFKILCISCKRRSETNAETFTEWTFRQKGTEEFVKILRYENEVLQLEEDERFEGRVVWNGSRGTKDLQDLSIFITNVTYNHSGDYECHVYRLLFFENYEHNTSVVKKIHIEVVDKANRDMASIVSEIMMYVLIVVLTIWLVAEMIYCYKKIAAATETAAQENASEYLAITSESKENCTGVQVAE

hNav1.7 [2] = target: T1, hNav1.7; assay: Patch voltage clamp electrophysiology assay (EP), Syncropatch 384PE, CHO cells expressing Nav1.7; format: cell-based; conditions: read-out: EP_SP hNav1.7 (Ex. 243B) IC50
Procedure, shortened: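 Automated whole-cell patch clamp on CHO cells stably expressing human Nav1.7, CsCl/EGTA internal and NMDG/80 mM Na+ external (pH 7.4). From −50 mV holding, −10 mV step, 20 ms recovery at −150 mV, then second −10 mV pulse where block is measured; inhibition after 7.5 min compound incubation.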
Target sequence in this assay (Q15858 other isoform, or with tags, fused parts or gaps): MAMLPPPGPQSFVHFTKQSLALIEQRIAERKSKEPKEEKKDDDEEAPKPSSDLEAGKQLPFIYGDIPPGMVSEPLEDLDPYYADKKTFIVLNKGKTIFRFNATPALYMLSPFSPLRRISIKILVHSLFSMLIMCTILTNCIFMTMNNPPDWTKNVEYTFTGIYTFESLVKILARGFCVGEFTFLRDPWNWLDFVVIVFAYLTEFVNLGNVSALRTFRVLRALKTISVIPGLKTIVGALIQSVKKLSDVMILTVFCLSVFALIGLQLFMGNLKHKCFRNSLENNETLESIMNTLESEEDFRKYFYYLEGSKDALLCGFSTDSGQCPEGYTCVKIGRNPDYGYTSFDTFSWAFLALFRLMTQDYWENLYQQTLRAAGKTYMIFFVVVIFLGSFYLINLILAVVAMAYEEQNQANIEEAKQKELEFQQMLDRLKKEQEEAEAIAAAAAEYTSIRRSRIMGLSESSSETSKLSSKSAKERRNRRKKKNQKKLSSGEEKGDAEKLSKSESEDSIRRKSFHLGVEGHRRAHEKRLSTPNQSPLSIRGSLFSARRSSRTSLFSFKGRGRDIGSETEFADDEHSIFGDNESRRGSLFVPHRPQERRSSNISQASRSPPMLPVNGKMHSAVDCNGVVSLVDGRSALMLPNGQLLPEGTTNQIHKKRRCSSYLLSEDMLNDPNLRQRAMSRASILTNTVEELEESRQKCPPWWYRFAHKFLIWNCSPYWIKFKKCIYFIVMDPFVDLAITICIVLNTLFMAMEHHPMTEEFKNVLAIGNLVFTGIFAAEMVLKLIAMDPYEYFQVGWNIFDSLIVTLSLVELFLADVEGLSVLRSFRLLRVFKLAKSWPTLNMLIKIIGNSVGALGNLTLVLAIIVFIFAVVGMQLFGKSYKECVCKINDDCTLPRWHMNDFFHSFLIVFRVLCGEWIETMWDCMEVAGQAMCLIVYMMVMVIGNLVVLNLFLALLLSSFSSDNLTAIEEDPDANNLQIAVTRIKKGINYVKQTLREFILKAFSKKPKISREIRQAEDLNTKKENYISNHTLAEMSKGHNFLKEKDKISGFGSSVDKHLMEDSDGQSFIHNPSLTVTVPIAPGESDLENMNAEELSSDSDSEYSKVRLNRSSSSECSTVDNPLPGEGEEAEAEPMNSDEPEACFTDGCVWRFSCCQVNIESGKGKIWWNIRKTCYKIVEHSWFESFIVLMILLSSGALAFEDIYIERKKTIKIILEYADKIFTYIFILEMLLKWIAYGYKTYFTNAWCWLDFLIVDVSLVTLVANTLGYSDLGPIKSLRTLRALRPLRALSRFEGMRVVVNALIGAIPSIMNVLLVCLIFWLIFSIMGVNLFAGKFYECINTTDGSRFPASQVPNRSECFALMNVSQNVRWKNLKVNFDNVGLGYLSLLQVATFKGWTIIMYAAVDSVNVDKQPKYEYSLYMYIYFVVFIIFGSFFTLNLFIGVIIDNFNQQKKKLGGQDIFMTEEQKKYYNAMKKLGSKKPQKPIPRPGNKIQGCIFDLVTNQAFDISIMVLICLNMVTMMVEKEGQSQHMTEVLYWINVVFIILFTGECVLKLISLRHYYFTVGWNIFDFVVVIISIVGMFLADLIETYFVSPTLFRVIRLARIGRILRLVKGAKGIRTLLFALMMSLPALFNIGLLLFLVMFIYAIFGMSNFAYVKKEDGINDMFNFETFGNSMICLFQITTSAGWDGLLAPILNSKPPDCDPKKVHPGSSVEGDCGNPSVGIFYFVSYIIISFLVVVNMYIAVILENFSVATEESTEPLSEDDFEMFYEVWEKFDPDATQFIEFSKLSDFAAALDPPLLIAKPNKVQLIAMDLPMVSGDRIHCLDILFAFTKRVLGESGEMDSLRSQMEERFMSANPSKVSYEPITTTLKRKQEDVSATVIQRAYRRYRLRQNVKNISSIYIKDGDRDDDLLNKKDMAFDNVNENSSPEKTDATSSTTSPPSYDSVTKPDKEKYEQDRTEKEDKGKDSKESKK

[3] = holding potential -50 mV, […] compound incubation

SMILES	IC50 (hNav1.7 [1])	IC50 (hNav1.7 [2]; [3])	IC50 (hNav1.7 [2])
CN(C)[C@H]1C[C@@H](c2cccc(C(F)(F)F)c2)CC[C@@H]1Nc1cc(F)c(S(=O)(=O)Nc2nccs2)cc1Cl [Example 129, 5-chloro-4-(((1S,2S,4S)-2-(dimethylamino)-4-(3-(trifluoromethyl)phenyl)cyclohexyl)amino)-2-fluoro-N-(thiazol-2-yl)benzenesulfonamide formate]	0.000255 µM	0.000372 µM	
CN(C)[C@H]1C[C@@H](c2cccc(C3CC3)c2)CC[C@@H]1Nc1cc(F)c(S(=O)(=O)Nc2ccncn2)cc1Cl [Example 219, 5-chloro-4-(((1S,2S,4S)-4-(3-cyclopropylphenyl)-2-(dimethyamino)cyclohexyl)amino)-2-fluoro-N-(pyrimidin-4-yl)benzenesulfonamide]	0.00171 µM	0.000942 µM	
CCN(C)[C@H]1CCCC[C@@H]1N1CCOc2cc(S(=O)(=O)Nc3nccs3)c(F)cc21 (racemic) [Example 189, 4-((trans)-2-(ethyl(methyl)amino)cyclohexyl)-6-fluoro-N-(thiazol-2-yl)-3,4-dihydro-2H-benzo[b][1,4]oxazine-7-sulfonamide]	0.304 µM	0.0234 µM	
CN(C)[C@H]1CCC(c2cccc(C(F)(F)F)c2)C[C@@H]1Nc1cc(F)c(S(=O)(=O)Nc2ccncn2)cc1Cl (stereo in doubt) [Example 121, 5-chloro-4-(((1S,2S,5S)-2-(dimethylamino)-5-(3-(trifluoromethyl)phenyl)cyclohexyl)amino)-2-fluoro-N-(pyrimidin-4-yl)benzenesulfonamide]	1.17 µM	0.121 µM	
O=S(=O)(Nc1cccc(F)n1)c1cc(Cl)c(N[C@H]2CCCC[C@@H]2N2CC3CC3C2)cc1F (stereo partly drawn) [Example 105, 4-(((1S,2S)-2-(3-azabicyclo[3.1.0]hexan-3-yl)cyclohexyl)amino)-5-chloro-2-fluoro-N-(6-fluoropyridin-2-yl)benzenesulfonamide]	0.0313 µM	0.0045 µM	
CN(C1CNC1)[C@H]1C[C@@H](C(F)(F)F)CC[C@@H]1Nc1cc(F)c(S(=O)(=O)Nc2cccc(F)n2)cc1Cl [Example 170, 4-(((1S,2S,4S)-2-(azetidin-3-yl(methyl)amino)-4-(trifluoromethyl)cyclohexyl)amino)-5-chloro-2-fluoro-N-(6-fluoropyridin-2-yl)benzenesulfonamide]	0.00292 µM	0.00368 µM	
CN(CCO)[C@H]1C[C@@H](C(F)(F)F)CC[C@@H]1Nc1cc(F)c(S(=O)(=O)Nc2cccc(F)n2)cc1Cl [Example 158, 5-chloro-2-fluoro-N-(6-fluoropyridin-2-yl)-4-(((1S,2S,4S)-2-((2-hydroxyethyl)(methyl)amino)-4-(trifluoromethyl)cyclohexyl)amino)benzenesulfonamide formate]	0.00596 µM	0.00271 µM	
N#CC1CCN([C@H]2CCCC[C@@H]2Nc2cc(F)c(S(=O)(=O)Nc3nccs3)cc2Cl)CC1 [Example 149, 5-Chloro-4-(((1S,2S)-2-(4-cyanopiperidin-1-yl)cyclohexyl)amino)-2-fluoro-N-(thiazol-2-yl)benzenesulfonamide formate]	0.52 µM	0.0125 µM	
CN(C)[C@H]1CC=C(C(F)(F)F)C[C@@H]1Nc1cc(F)c(S(=O)(=O)Nc2nccs2)cc1Cl [Example 130, 5-chloro-4-(((1S,6S)-6-(dimethylamino)-3-(trifluoromethyl)cyclohex-3-en-1-yl)amino)-2-fluoro-N-(thiazol-2-yl)benzenesulfonamide]	0.0759 µM	0.00992 µM	
CN(C[C@H](O)C1CC1)[C@H]1CCCC[C@@H]1Nc1cc(F)c(S(=O)(=O)Nc2nccs2)cc1Cl [Example 143, 5-Chloro-4-(((1S,2S)-2-(((R)-2-cyclopropyl-2-hydroxyethyl)(methyl)amino)cyclohexyl)amino)-2-fluoro-N-(thiazol-2-yl)benzenesulfonamide]	0.418 µM	0.0193 µM	
CN(CC(O)C(F)F)[C@H]1CCCC[C@@H]1Nc1cc(F)c(S(=O)(=O)Nc2nccs2)cc1Cl (single isomer, unassigned) [Example 126]	0.0876 µM	0.00925 µM	
CCN(C)[C@H]1CCCC[C@@H]1Nc1cc(F)c(S(=O)(=O)Nc2nc(C)cs2)cc1Cl [Example 102, 5-chloro-4-(((1S,2S)-2-(ethyl(methyl)amino)cyclohexyl)amino)-2-fluoro-N-(4-methylthiazol-2-yl)benzenesulfonamide formate]	0.424 µM	0.0665 µM	
CN1CC[C@H]1C(=O)N(C)[C@H]1CCCC[C@@H]1Nc1cc(F)c(S(=O)(=O)Nc2nccs2)cc1Cl [Example 202, (S)—N-((1S,2S)-2-((2-chloro-5-fluoro-4-(N-(thiazol-2-yl)sulfamoyl)phenyl)amino)cyclohexyl)-N,1-dimethylazetidine-2-carboxamide]	0.245 µM	0.0344 µM	
CN(C)[C@H]1C[C@@H](c2cccc(Cl)c2)CC[C@@H]1Nc1cc(F)c(S(=O)(=O)Nc2ccncn2)cc1Cl [Example 231, 5-Chloro-4-(((1S,2S,4S)-4-(3-chlorophenyl)-2-(dimethylamino)cyclohexyl)amino)-2-fluoro-N-(pyrimidin-4-yl)benzenesulfonamide formate]	0.00222 µM	0.000933 µM	
O=S(=O)(Nc1cccc(F)n1)c1cc(Cl)c(N[C@@H]2CCCC[C@H]2N2CCCCC2)cc1F [Example 117, 5-chloro-2-fluoro-N-(6-fluoropyridin-2-yl)-4-(((1R,2R)-2-(piperidin-1-yl)cyclohexyl)amino)benzenesulfonamide]	2.22 µM	0.97 µM	
O=S(=O)(Nc1ccncn1)c1cc(Cl)c(N[C@H]2CCCC[C@@H]2N2CCC[C@](F)(CO)C2)cc1F [Example 221, 5-Chloro-2-fluoro-4-(((1S,2S)-2-((R)-3-fluoro-3-(hydroxymethyl)piperidin-1-yl)cyclohexyl)amino)-N-(pyrimidin-4-yl)benzenesulfonamide]	0.298 µM	0.0629 µM	
CN1CC[C@@H](C(=O)N(C)[C@H]2CCCC[C@@H]2Nc2cc(F)c(S(=O)(=O)Nc3nccs3)cc2Cl)C1 [Example 200, (R)—N-((1S,2S)-2-((2-chloro-5-fluoro-4-(N-(thiazol-2-yl)sulfamoyl)phenyl)amino)cyclohexyl)-N,1-dimethylpyrrolidine-3-carboxamide]	0.15 µM	0.0167 µM	
CN(C)[C@H]1C[C@@H](c2ccc(C(F)(F)F)cc2)CC[C@@H]1Nc1cc(F)c(S(=O)(=O)Nc2ccncn2)cc1Cl [Example 224, 5-Chloro-4-(((1S,2S,4S)-2-(dimethylamino)-4-(4-(trifluoromethyl)phenyl)cyclohexyl)amino)-2-fluoro-N-(pyrimidin-4-yl)benzenesulfonamide]	0.00833 µM	0.00236 µM	
CN([C@H]1C[C@H](O)C1)[C@H]1CCCC[C@@H]1Nc1cc(F)c(S(=O)(=O)Nc2nccs2)cc1Cl [Example 157, 5-Chloro-2-fluoro-4-(((1S,2S)-2-((trans-3-hydroxycyclobutyl)(methyl)amino)cyclohexyl)amino)-N-(thiazol-2-yl)benzenesulfonamide formate]	0.337 µM	0.0241 µM	
CN(CCCF)[C@H]1CCCC[C@@H]1Nc1cc(F)c(S(=O)(=O)Nc2nccs2)cc1Cl [Example 135, 5-chloro-2-fluoro-4-(((1S,2S)-2-((3-fluoropropyl)(methyl)amino)cyclohexyl)amino)-N-(thiazol-2-yl)benzenesulfonamide]	0.313 µM	0.0328 µM	
CN(CCC#N)[C@H]1CCCC[C@@H]1Nc1cc(F)c(S(=O)(=O)Nc2nccs2)cc1Cl [Example 125, 5-Chloro-4-(((1S,2S)-2-((2-cyanoethyl)(methyl)amino)cyclohexyl)amino)-2-fluoro-N-(thiazol-2-yl)benzenesulfonamide]	0.204 µM	0.00753 µM	
CN(C)[C@H]1C[C@@H](c2cccc(C(F)(F)F)c2)CC[C@@H]1Nc1cc(F)c(S(=O)(=O)Nc2ccncn2)cc1Cl [Example 181, 5-chloro-4-[[(1S,2S,4S)-2-(dimethylamino)-4-[3-(trifluoromethyl)phenyl]cyclohexyl]amino]-2-fluoro-N-pyrimidin-4-yl-benzenesulfonamide]	0.00131 µM	0.000783 µM	
CN1CC(C(=O)N(C)[C@H]2CCCC[C@@H]2Nc2cc(F)c(S(=O)(=O)Nc3nccs3)cc2Cl)C1 [Example 179, N-((1S,2S)-2-((2-Chloro-5-fluoro-4-(N-(thiazol-2-yl)sulfamoyl)phenyl)amino)cyclohexyl)-N,1-dimethylazetidine-3-carboxamide]	0.27 µM	0.00683 µM	
CC(=O)N1CC(N(C)[C@H]2CCCC[C@@H]2Nc2cc(F)c(S(=O)(=O)Nc3nccs3)cc2Cl)C1 [Example 148, 4-(((1S,2S)-2-((1-Acetylazetidin-3-yl)(methyl)amino)cyclohexyl)amino)-5-chloro-2-fluoro-N-(thiazol-2-yl)benzenesulfonamide]	0.305 µM	0.0253 µM	
CN(C)[C@H]1CC2C(C[C@@H]1Nc1cc(F)c(S(=O)(=O)Nc3nccs3)cc1Cl)C2(F)F (stereo in doubt) [Example 207, 5-Chloro-4-(((1S,3S,4S,6R)-4-(dimethylamino)-7,7-difluorobicyclo[4.1.0]heptan-3-yl)amino)-2-fluoro-N-(thiazol-2-yl)benzenesulfonamide]	1.6 µM	0.203 µM	
O=S(=O)(Nc1nccs1)c1cc(Cl)c(N[C@@H]2CCCC[C@H]2N2CC3CC3C2)cc1F (stereo partly drawn) [Example 159, 4-(((1R,2R)-2-(3-azabicyclo[3.1.0]hexan-3-yl)cyclohexyl)amino)-5-chloro-2-fluoro-N-(thiazol-2-yl)benzenesulfonamide]	1.79 µM		0.202 µM
